pEC50, pKi: −log10 of the molar value. The source made the active and inactive calls. No cut-off for these calls is given here. Starred links: 1 amine or outer side, 2 acyl side, 3 side chain; linkers in the order of their positions; H or OH if unused. Residues, ends and D or L forms follow the SMILES beside them. Groups on a side chain read outwards from the residue. *: point of attachment. Suc = O=C(CCC(=O)[*:2])[*:1]; NH(CH2)4NH2 = NCCCCN*; CO = O=C([*:1])[*:2]
Legend:
[1] = molecular target: T1, Neuropeptide Y receptor type 4 (Homo sapiens, UniProt P50391); assay: Displacement of [3H]UR-KK200 from human neuropeptide Y Y4 receptor expressed in CHO-mtAEQ cells co-expressing Gqi5 measured after 90 mins by scintillation counting analysis; format: cell-based; settings: for pKi: read-out: Ki; for Ki: read-out: pKi (converted)
T1 sequence (P50391 whole entry): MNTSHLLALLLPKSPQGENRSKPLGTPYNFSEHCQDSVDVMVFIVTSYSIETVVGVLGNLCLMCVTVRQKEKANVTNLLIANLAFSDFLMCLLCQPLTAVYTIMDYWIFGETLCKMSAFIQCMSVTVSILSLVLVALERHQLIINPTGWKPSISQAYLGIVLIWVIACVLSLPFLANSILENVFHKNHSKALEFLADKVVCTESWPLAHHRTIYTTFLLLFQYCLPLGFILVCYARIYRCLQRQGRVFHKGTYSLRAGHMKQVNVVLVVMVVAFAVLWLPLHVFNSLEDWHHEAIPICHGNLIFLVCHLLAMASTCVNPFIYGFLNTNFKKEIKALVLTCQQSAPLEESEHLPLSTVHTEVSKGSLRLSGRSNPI

[2] = molecular target: T2, Neuropeptide Y receptor type 1 (Homo sapiens, UniProt P25929); assay: Displacement of [3H]UR-MK299 from human neuropeptide Y Y1 receptor in human SK-N-MC cells measured after 90 mins by scintillation counting analysis; format: cell-based; settings: for pKi: read-out: Ki; for Ki: read-out: pKi (converted)
T2 sequence (P25929 whole entry): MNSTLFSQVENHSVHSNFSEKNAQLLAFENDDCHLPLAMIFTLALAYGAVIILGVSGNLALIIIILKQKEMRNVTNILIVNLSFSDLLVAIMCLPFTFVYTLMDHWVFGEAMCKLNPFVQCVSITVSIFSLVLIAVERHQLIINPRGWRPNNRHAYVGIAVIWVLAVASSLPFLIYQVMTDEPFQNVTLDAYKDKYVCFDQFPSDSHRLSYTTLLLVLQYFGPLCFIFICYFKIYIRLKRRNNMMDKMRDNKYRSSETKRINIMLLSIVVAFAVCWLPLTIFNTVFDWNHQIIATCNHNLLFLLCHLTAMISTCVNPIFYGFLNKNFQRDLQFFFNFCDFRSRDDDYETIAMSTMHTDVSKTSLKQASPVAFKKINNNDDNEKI

[3] = molecular target: T1, Neuropeptide Y receptor type 4; assay: Intrinsic activity at human neuropeptide Y Y4 receptor expressed in HEK293T-ARRB2 cells assessed as stimulation of beta-arrestin 2 recruitment by multimode plate reader relative to hPP; format: functional, cell-based
[4] = molecular target: T1, Neuropeptide Y receptor type 4; assay: Intrinsic activity at human neuropeptide Y Y4 receptor expressed in CHO-mtAEQ cells co-expressing Gqi5 by calcium aequorin assay; format: functional, cell-based
[5] = molecular target: T1, Neuropeptide Y receptor type 4; assay: Agonist activity at human neuropeptide Y Y4 receptor expressed in HEK293T-ARRB2 cells assessed as stimulation of beta-arrestin 2 recruitment by multimode plate reader; format: functional, cell-based
Homo sapiens [6] = organism: Homo sapiens; assay: Selectivity ratio, Ki for displacement of [3H]propionyl-pNPY from human neuropeptide Y Y5 receptor in human HEC-1B cells measured after 90 mins by scintillation counting analysis to Ki for displacement of [3H]UR-KK200 from human neuropeptide Y Y4 receptor expressed in CHO-mtAEQ cells co-expressing Gqi5 measured after 90 mins by scintillation counting analysis; format: cell-based
[7] = molecular target: T1, Neuropeptide Y receptor type 4; assay: Agonist activity at human neuropeptide Y Y4 receptor expressed in CHO-mtAEQ cells co-expressing Gqi5 by calcium aequorin assay; format: functional, cell-based
Homo sapiens [8] = organism: Homo sapiens; assay: Selectivity ratio, Ki for displacement of [3H]UR-MK299 from human neuropeptide Y Y2 receptor expressed in CHO cells measured after 90 mins by scintillation counting analysis to Ki for displacement of [3H]UR-KK200 from human neuropeptide Y Y4 receptor expressed in CHO-mtAEQ cells co-expressing Gqi5 measured after 90 mins by scintillation counting analysis; format: cell-based
Homo sapiens [9] = organism: Homo sapiens; assay: Selectivity ratio, Ki for displacement of [3H]UR-MK299 from human neuropeptide Y Y1 receptor in human SK-N-MC cells measured after 90 mins by scintillation counting analysis to Ki for displacement of [3H]UR-KK200 from human neuropeptide Y Y4 receptor expressed in CHO-mtAEQ cells co-expressing Gqi5 measured after 90 mins by scintillation counting analysis; format: cell-based
[10] = molecular target: T3, Neuropeptide Y receptor type 2 (Homo sapiens, UniProt P49146); assay: Displacement of [3H]UR-MK299 from human neuropeptide Y Y2 receptor expressed in CHO cells measured after 90 mins by scintillation counting analysis; format: cell-based; settings: for pKi: read-out: Ki; for Ki: read-out: pKi (converted)
T3 sequence (P49146 whole entry): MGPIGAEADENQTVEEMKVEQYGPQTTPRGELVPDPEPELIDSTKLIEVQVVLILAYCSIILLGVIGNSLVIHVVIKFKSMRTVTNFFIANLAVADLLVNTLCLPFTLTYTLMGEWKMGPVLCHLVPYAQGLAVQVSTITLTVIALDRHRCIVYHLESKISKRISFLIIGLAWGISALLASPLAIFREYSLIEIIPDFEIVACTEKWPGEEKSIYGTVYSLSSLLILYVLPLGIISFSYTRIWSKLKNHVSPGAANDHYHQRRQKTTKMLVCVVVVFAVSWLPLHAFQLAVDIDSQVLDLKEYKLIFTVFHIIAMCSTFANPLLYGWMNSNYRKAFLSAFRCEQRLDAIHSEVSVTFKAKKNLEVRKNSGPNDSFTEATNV

[11] = molecular target: T1, Neuropeptide Y receptor type 4; assay: Displacement of [3H]UR-KK200 from human neuropeptide Y Y4 receptor expressed in CHO-mtAEQ cells co-expressing Gqi5 assessed as fold change in affinity measured after 90 mins by scintillation counting analysis relative to Ac-Arg-Tyr-Arg-Leu-Arg-Tyr-NH2; format: cell-based; settings: filed as agonist
[12] = molecular target: T1, Neuropeptide Y receptor type 4; assay: Agonist activity at human neuropeptide Y Y4 receptor expressed in HEK293T-ARRB1 cells assessed as stimulation of beta-arrestin 1 recruitment by multimode plate reader; format: functional, cell-based; settings: for pEC50: read-out: EC50; for EC50: read-out: pEC50 (converted)
[13] = molecular target: T1, Neuropeptide Y receptor type 4; assay: Intrinsic activity at human neuropeptide Y Y4 receptor expressed in HEK293T-ARRB1 cells assessed as stimulation of beta-arrestin 1 recruitment by multimode plate reader relative to hPP; format: functional, cell-based
[14] = molecular target: T4, Neuropeptide Y receptor type 5 (Homo sapiens, UniProt Q15761); assay: Displacement of [3H]propionyl-pNPY from human neuropeptide Y Y5 receptor in human HEC-1B cells measured after 90 mins by scintillation counting analysis; format: cell-based, HEC-1B cell line; settings: for pKi: read-out: Ki; for Ki: read-out: pKi (converted)
T4 sequence (Q15761 whole entry): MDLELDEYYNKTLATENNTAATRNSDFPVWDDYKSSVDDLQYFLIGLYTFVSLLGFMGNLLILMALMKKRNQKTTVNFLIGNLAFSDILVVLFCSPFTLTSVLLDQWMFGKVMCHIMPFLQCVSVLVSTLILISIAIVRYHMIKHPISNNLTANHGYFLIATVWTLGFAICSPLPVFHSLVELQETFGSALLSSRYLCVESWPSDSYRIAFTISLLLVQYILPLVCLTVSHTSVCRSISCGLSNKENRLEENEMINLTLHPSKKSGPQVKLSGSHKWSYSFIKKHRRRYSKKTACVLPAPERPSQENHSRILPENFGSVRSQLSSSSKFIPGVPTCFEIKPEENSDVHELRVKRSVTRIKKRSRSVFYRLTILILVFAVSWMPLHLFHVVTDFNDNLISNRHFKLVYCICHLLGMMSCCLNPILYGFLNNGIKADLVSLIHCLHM

SMILES	pKi [1]	Ki [2] [µM]	Intrinsic activity [3]	Intrinsic activity [4]	pEC50 [5]	Selectivity ratio (Homo sapiens [6])	pEC50 [7]	Selectivity ratio (Homo sapiens [8])	Selectivity ratio (Homo sapiens [9])	pKi [10]	Ki [10] [µM]	fold change (FC) [11]	pEC50 [12]	Intrinsic activity [13]	Ki [14] [µM]	EC50 [12] [µM]	also measured
CC(C)C[C@H](NC(=O)[C@H](CCCNC(=N)N)NC(=O)[C@@H]1CCC(=O)N[C@@H](CCCNC(=N)N)C(=O)NCC(=O)N[C@@H](Cc2ccc(O)cc2)C(=O)N1)C(=O)N[C@@H](CCCNC(=N)N)C(=O)N[C@@H](Cc1ccc(O)cc1)C(N)=O (HELM PEPTIDE1{R.G.Y.E.R.L.R.Y.[am]}$PEPTIDE1,PEPTIDE1,1:R1-4:R3$$$V2.0)	8.60	0.457	74%	48%	6.75	> 1200	6.17	> 4000	300	< 5.00	> 10	1.4	6.54	64%	> 3.16	–	pKi [2]: 6.12; pKi [14]: < 5.52
CC(C)C[C@H](NC(=O)[C@H](CCCNC(=N)NC(=O)NCCCCN)NC(=O)[C@H](CCCNC(=N)N)NC(=O)CCC(=O)O)C(=O)N[C@@H](CCCNC(=N)N)C(=O)N[C@@H](Cc1ccc(O)cc1)C(N)=O (Suc-RR([CO-NH(CH2)4NH2])LRY-NH2)	8.00	> 10	60%	–	6.12	> 1000	–	> 1000	> 1000	< 5.00	> 10	-2.9	6.00	71%	> 10	–	pKi ([2]; sk-n-mc): < 5.00
CC(C)C[C@H](NC(=O)[C@@H]1CC(=O)NCC(=O)N[C@H](CCCNC(=N)N)C(=O)N[C@@H](CCCNC(=N)N)C(=O)N1)C(=O)N[C@@H](CCCNC(=N)N)C(=O)N[C@@H](Cc1ccc(O)cc1)C(N)=O	6.77	–	inactive	inactive	< 5.00	–	< 5.00	–	–	–	–	-50	–	inactive	–	> 10	Ki [1]: 0.138 µM
CC(C)C[C@H](NC(=O)[C@@H]1CCCNC(=N)NC(=O)NCCCCNC(=O)CCC(=O)N[C@@H](CCCCN)C(=O)N[C@@H](Cc2ccc(O)cc2)C(=O)N1)C(=O)N[C@@H](CCCNC(=N)N)C(=O)N[C@@H](Cc1ccc(O)cc1)C(N)=O (HELM PEPTIDE1{K.Y.[N=C(NCCC[C@H](N[*:1])C(=O)[*:2])N[*:3]].L.R.Y.[am]}|CHEM1{[O=C(CCC(=O)[*:1])NCCCCNC(=O)[*:2]]}$PEPTIDE1,CHEM1,1:R1-1:R1|PEPTIDE1,CHEM1,3:R3-1:R2$$$V2.0)	9.62	> 3.16	67%	75%	7.89	> 12000	7.59	> 40000	> 12000	< 5.00	> 10	14	7.85	61%	> 3.16	–	pKi [2]: < 5.52; pKi [14]: < 5.52
CC(C)C[C@H](NC(=O)[C@H](CCCNC(=N)NC(=O)NCCCCN)NC(=O)[C@H](Cc1ccc(O)cc1)NC(=O)[C@H](CCCCN)NC(=O)CCC(=O)O)C(=O)N[C@@H](CCCNC(=N)N)C(=O)N[C@@H](Cc1ccc(O)cc1)C(N)=O (Suc-KYR([CO-NH(CH2)4NH2])LRY-NH2)	8.15	> 10	61%	–	6.53	> 1000	–	> 1400	> 1400	< 5.00	> 10	-2.1	6.57	57%	> 10	–	Ki [1]: 0.00692 µM; pKi ([2]; sk-n-mc): < 5.00; pKi ([14]; hec-1b cell line): < 5.00
CC(C)C[C@H](NC(=O)[C@H](CCCNC(=N)N)NC(=O)[C@H](Cc1ccc(O)cc1)NC(=O)[C@H](CCCNC(=N)N)NC(=O)CCC(=O)O)C(=O)N[C@@H](CCCNC(=N)NC(=O)NCCCN)C(=O)N[C@@H](Cc1ccc(O)cc1)C(N)=O	7.28	–	inactive	inactive	< 5.00	–	< 5.00	–	–	–	–	-16	–	inactive	–	> 10	–
CC(=O)N[C@@H](CCCNC(=N)N)C(=O)N[C@@H](Cc1ccc(O)cc1)C(=O)N[C@@H](CCCNC(=N)N)C(=O)N[C@@H](CC(C)C)C(=O)N[C@@H](CCCNC(=N)N)C(=O)N[C@@H](Cc1ccc(O)cc1)C(N)=O	–	> 3.16	61%	75%	–	> 830	–	> 830	> 830	–	> 3.16	–	–	55%	> 3.16	–	–
CC(C)C[C@@H]1NC(=O)[C@H](CCCNC(=N)N)NC(=O)[C@H](Cc2ccc(O)cc2)NC(=O)[C@H](CCCNC(=N)N)NC(=O)CCC(=O)NCCCNC(=O)NC(=N)NCCC[C@@H](C(=O)N[C@@H](Cc2ccc(O)cc2)C(N)=O)NC1=O	6.85	–	inactive	inactive	< 5.00	–	< 5.00	–	–	–	–	-41	–	inactive	–	> 10	–
